Here are results for twelve compounds from US12054562B2, “Cell-permeable inhibitory agent and methods of use thereof in treatment of cognitive and mood disorders” (priority 2015, dated 2024).

Assay [1] has as its system GABAA receptor-mediated tonic current in hippocampal neurons. Briefly: Whole-cell voltage-clamp recordings of tonic current in astrocyte-neuron co-cultures. In kind it is cell-based, mouse. Particulars: for tonic current: neurons grown in co-cultures.
Assay [2] has as its system α5GABAA receptor cell-surface expression. Briefly: Receptor cell-surface ELISA assay in cultured hippocampal neurons. It counts as cell-based, mouse. Particulars: for etomidate-induced increase in α5GABAA receptor surface expression: peptide 2 μM, 24 hrs, astrocyte-conditioned medium (etomidate 1 μM, 1 hr). Here is the method:
This experimental cell culture model was used to test the effects of the inhibitory peptide on an overexpression of α5GABAA receptors on the surface of neurons. The medium from astrocytes that were treated with etomidate (1 μM, 1 hr) (conditioned medium) was collected, and the medium bathing cultured hippocampal neurons was exchanged with the astrocyte-conditioned medium. The cells were incubated at 37° C., 5% CO2 with the peptide or scramble peptide (2 μM). After 24 hrs incubation, the cells were used for receptor cell-surface ELISA assay. The cells were fixed in 4% paraformaldehyde for 20 min in the presence (permeabilized) or absence (non-permeabilized) of 1% Triton-X100. The cells, after 3 times wash with cold PBS and blocked with 5% bovine album solution, were incubated with a α5 antibody (Santa Cruz Biotech Inc.) at 4° C. overnight. The next day the cells were thoroughly washed with PBS and incubated with the horseradish peroxidase (HRP)-conjugated secondary antibody for 2 hrs. With HRP substrate added and color developed in the medium, the results were determined with microplate reader.
The cell surface expression of α5 subunit was presented as the ratio of the colorimetric reading under non-permeabilized conditions to those permeabilized conditions. Consistent with the previous report, etomidate increases α5GABAA receptor surface expression. This increase was blocked by the specific peptide, but not the scramble peptide (FIG. 6A).
For astrocyte culture, cortical astrocytes were isolated from embryonic day 18 (E18) mouse embryos. Cells were allowed to grow to confluence in MEM and 10% fetal bovine serum (FBS; Life Technologies, Grand Island, New York) for 14 d. Cells were then enzymatically dissociated with trypsin-EDTA (0.05%; Life Technologies, Grand Island, New York), and passaged three times to obtain a nearly pure astrocytic culture. Astrocytes were then plated at a density of 25,000 cells per dish. […]

The test system of assay [3] is etomidate-induced memory deficits in mice. The assay can be described thus: Novel object recognition task, prevention paradigm. It counts as in vivo, mouse. Particulars: Etom 8 mg/kg i.p., NOR next day. From the text: The novel object recognition task involves the presentation of two identical objects for visual inspection (in the case of humans and non-human primates) and exploration in the case of rodents. After a delay, one of the original objects is presented together with a new (novel) object. Humans and animals normally spend time more time looking at (or in the case of mice, exploring) the novel object. Indeed, the test relies on the innate preference of humans and animals for novelty. The inspection or interaction time differs only if the familiar object is recognized. Otherwise, the subject spends an equal amount of time inspecting both objects. […]
In the present study, mice were handled two times a day, 5 min each before start of behavioral experiments. Object recognition was assessed in a circle opaque chamber with the diameter of 38.5 cm in a regular lit room. […] Movement and interaction with the objects was recorded with a video camera that was mounted above the chamber. The exploratory behavior and mouse activity was analyzed blindly by a person with a good training and the software EthoVision, XT v11.5 provided by the Noldus Information Tech Inc., (Leesburg VA, USA). […] Memory was assessed by measuring the novelty preference ratio (i.e., the ratio of time spent exploring the novel object to the time spent exploring both objects). […]

The subject of another assay is radixin. The assay can be described thus: Western blot of radixin phosphorylation in hippocampus of treated mice. Conditions: etomidate 8 mg/kg, i.p., hippocampi 24 hrs later. It counts as in vivo, mouse. How it is done:
We next asked whether injection of inhibitory peptide, when administered to mice in vivo by I.P. injection, reduced the level of α5GABAA receptors expressed in the hippocampus. To test whether the peptide reduces α5GABAA receptor cell-surface expression in vivo, we took advantage of a mouse model that we developed recently (Zurek, et al., 2014), in which up-regulation of α5GABAA receptor cell surface expression causes memory deficits. Adult mice (22-25 g) were treated with etomidate (8 mg/kg, i.p.), and sacrificed 24 hrs later according to a protocol approved by the Animal Care Committee of the University of Toronto. The hippocampi were collected and subject to experiments. We first measured the level of radixin phosphorylation, because radixin phosphorylation is required for the recruitment of α5GABAA receptors to extrasynaptic sites of the neurons (Loebrich et al., 2006; Hausrat et al., 2015). The antibody against threonine at 564 of radixin, which is specific for radixin phosphorylation involving α5GABAA receptor extra-synaptic trafficking, was used for these studies (Choii et al., 2015; Hausrat et al., 2015). […] We next examined whether the inhibitory peptide prevented α5GABAA receptor from trafficking to surface membrane in vivo by studying ex vivo brain slices. […]

Assay [4] has as its target T1, α5 subunit-radixin interaction (Mus musculus, UniProt P26043).
T1 construct: tissue lysate prepared from the hippocampus of adult mice; from tissue; host or cells: hippocampus of adult mice (C57BL/6J×SvEv)
The assay can be described thus: Co-immunoprecipitation and Western blot of α5 subunit-radixin coupling in hippocampal tissue lysate. Conditions: 20 μM peptide without TAT sequence, one hour incubation. In kind it is binding. Here is the method: The experiments used tissue lysate prepared from the hippocampus of adult mice (C57BL/6J×SvEv, 2-4 month old, male). Hippocampal tissue was homogenized in ice-cold RIPA buffer (20 mM Tris-HCL, pH 7.5, 150 mM NaCl, 1 mM Na2EDTA, 1 mM EGTA, 1% NP-40, 1% sodium deoxycholate, 2.5 mM sodium pyrophosphate, 1 mM β-glycerophosphate) supplemented with 1 mM sodium orthovanadate and 1% protease inhibitor cocktail and 1% phosphatase inhibitor cocktail (Roche Diagnostics, GmbH, Manheim Germany). The tissue lysate was subsequently spun at 14,000 rpm for 30 min with the Microfuge 22R Centrifuge (Beckman Coulter™, Brea, California, US). The supernatant was collected and frozen at −20 C°. The next day, the supernatant, after thawing, was re-centrifuged at 14,000 rpm for another 30 min to clear the potential undissolved or pellet substances. After spinning twice, the supernatant was collected for subsequent experiments.
One hour following the incubation, the antibodies (2-4 μg) against either α5 subunit (cat #sc—31417, Santa Cruz Biotechnology, Inc., 10410 Finnell St. Dallas, TX, 75220, USA) or radixin (cat #ab91312, Abcam Inc., c/o 913860, PO Box 4090 Stn A, Toronto, ON M5W 0E9), or 4 μg of non-specific IgG protein (cat #sc—2028, Santa Cruz Biotechnology, Inc., 10410 Finnell St. Dallas, TX, 75220, USA), were added to the lysate solution. […]

T1 sequence (P26043 whole entry): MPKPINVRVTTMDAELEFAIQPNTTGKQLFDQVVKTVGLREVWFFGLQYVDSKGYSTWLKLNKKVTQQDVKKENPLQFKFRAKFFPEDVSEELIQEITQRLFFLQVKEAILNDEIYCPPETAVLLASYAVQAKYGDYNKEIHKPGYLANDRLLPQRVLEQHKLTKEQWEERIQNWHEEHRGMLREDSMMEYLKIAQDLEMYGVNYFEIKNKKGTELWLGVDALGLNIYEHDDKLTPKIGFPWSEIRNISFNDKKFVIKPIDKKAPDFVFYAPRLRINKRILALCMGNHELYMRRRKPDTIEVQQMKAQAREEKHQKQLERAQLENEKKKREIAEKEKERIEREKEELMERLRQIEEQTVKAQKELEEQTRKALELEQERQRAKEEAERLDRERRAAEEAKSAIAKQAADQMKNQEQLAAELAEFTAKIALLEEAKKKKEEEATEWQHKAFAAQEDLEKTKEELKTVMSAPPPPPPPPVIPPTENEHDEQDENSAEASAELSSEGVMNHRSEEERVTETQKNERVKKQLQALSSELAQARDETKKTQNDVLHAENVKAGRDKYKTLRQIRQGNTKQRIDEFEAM

For the compound `CCOC(=O)c1cncn1[C@H](C)c1ccccc1` [etomidate], in assay [1] (etomidate 1 μM, 1 h, measured 24 h after treatment), the “amplitude of the tonic current” value is on record as “caused an increase”. In assay [2] (medium from astrocytes treated with etomidate 1 μM, 1 hr, 24 hrs incubation), the “α5GABAA receptor surface expression” value is “increases”. In assay [3], the “preference for the novel object (NOR)” value is given as “showed no preference”. Besides, in the assay with radixin, the “radixin phosphorylation (pThr564)” value is reported as “increases” and the “total radixin protein level” value is “does not alter”.
Take `FC(F)OC(Cl)C(F)(F)F` (stereo not shown) [isoflurane]: the tonic current entry in assay [1] (ISO, 250 μM) is “persistent increase”.
Take `Cc1ncc2n1-c1ccc(Cl)cc1C(c1ccccc1F)=NC2` [midazolam]: the tonic current result in assay [1] (MDZ, 200 nM) is reported as “persistent increase”.
Consider `CC(C)c1cccc(C(C)C)c1O` [propofol], for which the tonic current result in assay [1] (Prop, 3 μM) was “persistent increase”.
Regarding `FCOC(C(F)(F)F)C(F)(F)F` [sevoflurane], in assay [1] (SEVO, 266 μM), the tonic current result is recorded as “persistent increase”.
For the compound “AWDGKKAL (listed as Homo sapiens) [Peptide C8, N-terminal truncated peptide, positions 350-357]”, the “etomidate-induced increase in α5GABAA receptor surface expression” value (“etomidate-induced increase” below) in assay [2] was “prevented”.
As for “DGKKAL (listed as Homo sapiens) [Peptide C6, N-terminal truncated peptide, positions 352-357]”, in assay [2], the “etomidate-induced increase” value is listed as “did not”.
In the case of “GWAWDGKKAL (listed as Homo sapiens) [Peptide C10, N-terminal truncated peptide, positions 348-357]”, the “etomidate-induced increase” value in assay [2] is “prevented”.
In the case of “KKAL (listed as Homo sapiens) [Peptide C4, N-terminal truncated peptide, positions 354-357]”, the “etomidate-induced increase” value in assay [2] was “did not”.
“KRGWAWDGKKAL (listed as Homo sapiens) [α5pΔN4]”: the “etomidate-induced increase” value in assay [2] is listed as “retains the inhibitory function”.
As for “NYFTKRGWAWDG (listed as Homo sapiens) [α5pΔC4]”, the “etomidate-induced increase” value in assay [2] is on record as “lost the inhibitory function”.
“TYFGRKNALWKAWKGD (Scramble peptide) [reference compound]”: in assay [4], the “association between α5 subunit and radixin” value is recorded as “did not reduce this association”.
